This is an account of results in US9493501B2, “Methyltransferase inhibitors for treating cancer” (MEMORIAL SLOAN-KETTERING CANCER CENTER, priority 2011, dated 2016).

The target of one assay is T1, SET8 (191-352) (Homo sapiens, UniProt Q9NQR1).
T1 construct: SET8 (191-352)
T1 sequence (Q9NQR1 191-352 isoform Q9NQR1-2): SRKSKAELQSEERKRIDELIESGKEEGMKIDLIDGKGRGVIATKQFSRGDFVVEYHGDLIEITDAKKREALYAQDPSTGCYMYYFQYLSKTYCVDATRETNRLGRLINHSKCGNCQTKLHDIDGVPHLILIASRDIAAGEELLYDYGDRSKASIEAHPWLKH
The assay can be described thus: Filter-paper methylation assay, SET8. It is filed as biochemical. Conditions: 1000 nM enzyme, H4 (10-30 aa) peptide, 8 h.

The target of another assay is T2, GLP1 (951-1235) (Homo sapiens, UniProt Q9H9B1).
T2 sequence (Q9H9B1 982-1266 limits assumed): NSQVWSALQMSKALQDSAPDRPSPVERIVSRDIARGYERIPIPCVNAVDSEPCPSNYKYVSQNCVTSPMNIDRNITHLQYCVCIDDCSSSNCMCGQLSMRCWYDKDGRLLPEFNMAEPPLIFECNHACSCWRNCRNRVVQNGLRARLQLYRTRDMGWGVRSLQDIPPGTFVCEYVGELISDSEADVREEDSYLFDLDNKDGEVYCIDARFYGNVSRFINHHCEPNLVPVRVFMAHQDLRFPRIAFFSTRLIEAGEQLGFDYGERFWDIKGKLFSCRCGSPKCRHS
The assay can be described thus: biochemical. Particulars: 10 nM enzyme, H3 (1-21 aa) peptide, 1 h.

The next assay deals with T3, SETD2 (1347-1711) (Homo sapiens, UniProt Q9BYW2).
T3 construct: SETD2 (1347-1711)
T3 sequence (Q9BYW2 1347-1711): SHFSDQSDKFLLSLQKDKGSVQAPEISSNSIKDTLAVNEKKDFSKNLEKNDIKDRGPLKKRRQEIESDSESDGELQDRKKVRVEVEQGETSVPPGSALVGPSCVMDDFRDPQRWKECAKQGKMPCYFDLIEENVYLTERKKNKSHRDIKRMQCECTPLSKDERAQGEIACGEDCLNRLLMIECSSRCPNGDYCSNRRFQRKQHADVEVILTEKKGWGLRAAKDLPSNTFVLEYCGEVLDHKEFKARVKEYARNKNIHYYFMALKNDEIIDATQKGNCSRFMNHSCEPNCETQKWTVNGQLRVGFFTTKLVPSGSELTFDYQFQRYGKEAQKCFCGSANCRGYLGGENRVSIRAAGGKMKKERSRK
The assay can be described thus: Filter-paper methylation assay, SETD2. Type of assay: biochemical. Particulars: for IC50: 250 nM enzyme, H3 (20-50 aa) peptide, 4 h.

The target of the next assay is T4, PRMT3 (211-531) (Homo sapiens, UniProt O60678).
T4 construct: PRMT3 (211-531)
T4 sequence (O60678 211-531): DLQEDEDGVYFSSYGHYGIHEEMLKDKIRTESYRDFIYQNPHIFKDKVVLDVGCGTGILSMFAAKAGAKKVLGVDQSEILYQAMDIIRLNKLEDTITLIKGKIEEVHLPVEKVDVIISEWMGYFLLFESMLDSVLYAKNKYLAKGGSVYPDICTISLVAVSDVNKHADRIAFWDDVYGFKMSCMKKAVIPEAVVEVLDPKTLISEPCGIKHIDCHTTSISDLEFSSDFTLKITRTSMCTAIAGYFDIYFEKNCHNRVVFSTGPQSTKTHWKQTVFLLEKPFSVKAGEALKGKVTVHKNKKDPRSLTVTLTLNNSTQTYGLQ
The assay can be described thus: Filter-paper methylation assay, PRMT3. Conditions: 100 nM enzyme, RGG peptide, 3 h. It is filed as biochemical.

The next assay has as its target T5, SUV39H2 (112-410) (Homo sapiens, UniProt Q9H5I1).
T5 construct: SUV39H2 (112-410)
The assay can be described thus: Filter-paper methylation assay, SUV39H2. Conditions: 5 nM enzyme, H3 (1-21 aa) peptide, 4 h. It is filed as biochemical.

Another assay has as its target T6, PRMT1 (10-352) (Homo sapiens, UniProt Q99873).
T6 construct: PRMT1 (10-352)
The assay can be described thus: Filter-paper methylation assay, PRMT1. Type of assay: biochemical. Conditions: 100 nM enzyme, RGG peptide, 1.5 h.

The target of a further assay is T7, SMYD2 Full-length (Homo sapiens, UniProt Q9NRG4).
T7 construct: SMYD2 Full-length
T7 sequence (Q9NRG4 whole entry): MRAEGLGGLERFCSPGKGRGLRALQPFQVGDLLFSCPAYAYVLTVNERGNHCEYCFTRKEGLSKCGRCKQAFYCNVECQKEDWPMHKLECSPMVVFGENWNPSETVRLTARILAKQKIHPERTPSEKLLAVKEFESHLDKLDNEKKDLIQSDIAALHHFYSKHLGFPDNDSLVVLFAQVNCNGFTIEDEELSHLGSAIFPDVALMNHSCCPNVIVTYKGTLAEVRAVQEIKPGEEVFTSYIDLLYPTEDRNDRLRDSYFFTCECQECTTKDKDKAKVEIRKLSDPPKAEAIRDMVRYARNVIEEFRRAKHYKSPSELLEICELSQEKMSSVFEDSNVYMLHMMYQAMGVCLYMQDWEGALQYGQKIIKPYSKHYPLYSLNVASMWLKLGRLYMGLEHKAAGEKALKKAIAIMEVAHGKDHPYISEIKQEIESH
The assay can be described thus: Filter-paper methylation assay, SMYD2. It is filed as biochemical. Conditions: 50 nM enzyme, p53 (360-393 aa) peptide, 10 h; read-out: IC50 SMYD2-FL.

The target of a further assay is T8, G9a (913-1913) (Homo sapiens, UniProt Q96KQ7).
T8 construct: G9a (913-1913)
T8 sequence (Q96KQ7 913-1193): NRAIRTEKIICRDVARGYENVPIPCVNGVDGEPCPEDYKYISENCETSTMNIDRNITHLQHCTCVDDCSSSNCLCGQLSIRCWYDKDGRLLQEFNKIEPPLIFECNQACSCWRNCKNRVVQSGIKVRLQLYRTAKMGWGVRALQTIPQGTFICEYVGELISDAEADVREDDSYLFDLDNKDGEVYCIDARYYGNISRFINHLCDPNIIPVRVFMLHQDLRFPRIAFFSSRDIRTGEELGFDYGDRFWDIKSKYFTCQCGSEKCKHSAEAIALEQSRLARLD
The assay can be described thus: Filter-paper methylation assay, G9a. Type of assay: biochemical. Conditions: 20 nM enzyme, H3 (1-21 aa) peptide, 1 h.

The target in the next assay is T9, CARM1 (19-608) (Homo sapiens, UniProt Q86X55).
T9 construct: CARM1 (19-608)
T9 sequence (Q86X55 19-608): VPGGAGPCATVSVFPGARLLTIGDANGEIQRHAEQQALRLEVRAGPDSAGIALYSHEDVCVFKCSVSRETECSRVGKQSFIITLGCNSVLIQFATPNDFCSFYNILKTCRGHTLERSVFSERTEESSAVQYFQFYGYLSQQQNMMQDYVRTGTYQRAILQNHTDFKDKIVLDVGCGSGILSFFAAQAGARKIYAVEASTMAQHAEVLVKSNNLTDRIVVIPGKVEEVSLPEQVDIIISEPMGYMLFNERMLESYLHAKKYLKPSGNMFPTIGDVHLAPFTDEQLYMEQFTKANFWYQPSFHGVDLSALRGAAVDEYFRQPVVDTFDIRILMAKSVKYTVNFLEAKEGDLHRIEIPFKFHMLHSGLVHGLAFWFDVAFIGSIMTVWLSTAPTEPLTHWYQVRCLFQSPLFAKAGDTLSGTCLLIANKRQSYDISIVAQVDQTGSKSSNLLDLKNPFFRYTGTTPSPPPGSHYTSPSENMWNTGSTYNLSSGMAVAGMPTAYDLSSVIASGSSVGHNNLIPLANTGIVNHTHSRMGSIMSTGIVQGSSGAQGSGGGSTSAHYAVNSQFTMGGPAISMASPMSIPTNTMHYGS
The assay can be described thus: Filter-paper methylation assay, CARM1. It is filed as biochemical.

The next assay deals with T10, SET7/9 Full-length (Homo sapiens, UniProt Q8WTS6).
T10 construct: SET7/9 Full-length
T10 sequence (Q8WTS6 1-366): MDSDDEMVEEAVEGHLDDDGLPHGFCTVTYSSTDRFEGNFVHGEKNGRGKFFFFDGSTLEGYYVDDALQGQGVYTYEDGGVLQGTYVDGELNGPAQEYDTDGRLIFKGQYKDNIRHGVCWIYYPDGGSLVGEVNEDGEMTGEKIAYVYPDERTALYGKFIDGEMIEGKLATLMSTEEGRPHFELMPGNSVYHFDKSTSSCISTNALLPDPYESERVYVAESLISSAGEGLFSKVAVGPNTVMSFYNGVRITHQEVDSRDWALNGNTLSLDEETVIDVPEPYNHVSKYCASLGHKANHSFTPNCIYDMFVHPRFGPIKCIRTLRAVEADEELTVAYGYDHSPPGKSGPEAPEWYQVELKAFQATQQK
The assay can be described thus: Filter-paper methylation assay, SET7/9. Particulars: 150 nM enzyme, H3 (1-21 aa) peptide, 3 h. It is filed as biochemical.

Assay [1] has as its system histone 3 lysine 36 tri-methyl. The assay can be described thus: Cellular assay, histone methylation in HEK-293T cells. Conditions: "in vivo", up to 100 μM, 24 h, H3K36 tri-methyl blot. Type of assay: cell-based.
Setting [2] is: among the subset of PMTs screened.

The structures appear in SMILES notation. Like-named read-outs stand apart in the source and are kept apart here.

T6 sequence (Q99873 10-352 isoform Q99873-3, species assumed): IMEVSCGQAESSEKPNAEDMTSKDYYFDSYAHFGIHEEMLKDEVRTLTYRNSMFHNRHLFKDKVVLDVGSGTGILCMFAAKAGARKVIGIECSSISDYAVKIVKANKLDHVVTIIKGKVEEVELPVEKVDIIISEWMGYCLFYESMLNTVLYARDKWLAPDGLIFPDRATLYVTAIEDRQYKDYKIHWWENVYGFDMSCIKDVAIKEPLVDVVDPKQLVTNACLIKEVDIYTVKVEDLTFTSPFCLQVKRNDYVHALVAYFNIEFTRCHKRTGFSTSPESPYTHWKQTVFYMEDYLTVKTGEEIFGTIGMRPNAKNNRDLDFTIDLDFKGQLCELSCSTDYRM
T5 sequence (Q9H5I1 112-410): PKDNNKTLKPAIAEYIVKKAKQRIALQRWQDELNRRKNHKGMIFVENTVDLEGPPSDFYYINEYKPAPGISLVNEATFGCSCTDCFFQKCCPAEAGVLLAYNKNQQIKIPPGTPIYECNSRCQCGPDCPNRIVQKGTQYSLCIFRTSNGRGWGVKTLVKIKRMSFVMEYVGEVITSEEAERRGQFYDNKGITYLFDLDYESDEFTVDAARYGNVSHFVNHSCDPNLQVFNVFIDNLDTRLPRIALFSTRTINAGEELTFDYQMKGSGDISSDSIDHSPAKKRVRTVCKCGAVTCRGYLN

`CNC(CCC(N)C(=O)O)CC1OC(n2cnc3c(N)ncnc32)C(O)C1O` (stereo not shown) [Compound 101]: the IC50 at SET8 (191-352) was greater than 100 µM; against GLP1 (951-1235), 374 µM; against SETD2 (1347-1711), 125 µM; at PRMT3 (211-531), 76.2 µM; against SUV39H2 (112-410), 43.2 µM; against PRMT1 (10-352), 83.9 µM. Further, the IC50 at SMYD2 Full-length amounted to 0.5 µM; against G9a (913-1913), 165 µM; on CARM1 (19-608) it was 1.7 µM; on SET7/9 Full-length, 1.4 µM.
As to `CCCN[C@@H](CC[C@H](N)C(=O)OC)C[C@H]1O[C@@H](n2ccc3c(N)ncnc32)C(O)C1O` (stereo partly shown) [Compound 116e], the IC50 against SET8 (191-352) is greater than 100 µM; against GLP1 (951-1235) it was greater than 100 µM; against SETD2 (1347-1711), roughly 100 µM; against PRMT3 (211-531), 9.7 µM; against SUV39H2 (112-410), greater than 100 µM; at PRMT1 (10-352), greater than 100 µM. In addition, the IC50 was 9 µM on SMYD2 Full-length, greater than 100 µM at G9a (913-1913), 42 µM against CARM1 (19-608) and 10.3 µM against SET7/9 Full-length.
On to `Nc1ncnc2c1ncn2C1OC(CC(CCC(N)C(=O)O)NCc2ccccc2)C(O)C1O` (stereo not shown) [Compound 110], for which the IC50 against SET8 (191-352) is greater than 100 µM; at GLP1 (951-1235) it was greater than 100 µM; against PRMT3 (211-531) it was 5.1 µM; against SUV39H2 (112-410), greater than 100 µM; against PRMT1 (10-352), greater than 100 µM; on SMYD2 Full-length, 4 µM. Also, the IC50 is greater than 100 µM against G9a (913-1913), 22.4 µM against CARM1 (19-608) and greater than 100 µM against SET7/9 Full-length. For the same compound, at SETD2 (1347-1711) (setting [2]), the “selectivity for SETD2” value is listed as “selective”.
In the case of `Nc1ncnc2c1ncn2[C@@H]1O[C@H](C[C@H](CC[C@H](N)C(=O)O)CNCc2ccccc2)[C@H](O)C1O` (stereo partly shown) [Compound 202], the IC50 was greater than 100 µM against SET8 (191-352); greater than 100 µM against GLP1 (951-1235); 10.8 µM on SETD2 (1347-1711); 3.4 µM against PRMT3 (211-531); 10.1 µM against SUV39H2 (112-410); 15.2 µM against PRMT1 (10-352). The IC50 on SMYD2 Full-length is 1.6 µM; against G9a (913-1913) it was greater than 100 µM; against CARM1 (19-608) it was 0.09 µM; against SET7/9 Full-length, greater than 100 µM. For the same compound, at CARM1 (19-608) (setting [2]), the “selectivity for CARM1 inhibition” value was “apparent selectivity”.
As for `CCCN[C@@H](CC[C@H](N)C(=O)O)C[C@H]1O[C@@H](n2cnc3c(N)ncnc32)[C@H](O)[C@@H]1O` [Compound 102], the IC50 against SET8 (191-352) is greater than 100 µM; against GLP1 (951-1235), greater than 100 µM; against SETD2 (1347-1711) it was 0.8 µM; against PRMT3 (211-531), roughly 100 µM; on SUV39H2 (112-410) it was 9.8 µM; against PRMT1 (10-352) it was 9.5 µM. Moreover, the IC50 is 0.5 µM at SMYD2 Full-length; greater than 100 µM against G9a (913-1913); 3 µM at CARM1 (19-608) (300 nM enzyme, H3 (1-40 aa) peptide, 7 h, read-out: IC50 CARM1); 2.2 µM at SET7/9 Full-length. The inhibiting histone methyltransferase entry in assay [1] is “showed activity in inhibiting histone methyltransferase”.

The IC50 is the concentration that inhibits the measured activity by half.
